The text below walks through data of article PMC8300687, “A Fine-Tuned Lipophilicity/Hydrophilicity Ratio Governs Antibacterial Potency and Selectivity of Bifurcated Halogen Bond-Forming NBTIs” (Antibiotics, 2021).

For one data set, the system named is M. avium. Kind of data set: MIC, M. avium. Type of data set: cell-based. To be noted: Mycobacterium avium; read-out: MIC M. avium. The procedure:
(§1) Antimicrobial testing was carried out by the broth microdilution method in 96-well plate format following the Clinical and Laboratory Standards Institute (CLSI) guidelines and European Committee on Antimicrobial Susceptibility Testing (EUCAST) recommendations. Bacterial suspension of specific bacterial strain equivalent to 0.5 McFarland turbidity standard was diluted with cation-adjusted Mueller Hinton broth with TES (Thermo Fisher Diagnostic, Landsmeer, The Netherlands), to obtain a final inoculum of 10^5 CFU/mL. Compounds dissolved in DMSO and inoculum were mixed together and incubated for 18–20 h at 35 °C. Suspensions of Mycobacterium sp. were prepared into a tube of Middelbrook 7H9 broth supplemented with 5% OADC (Thermo Scientific, Trek Diagnostic Systems, West Sussex, UK) and incubated for at least 10 days. After incubation the minimal inhibitory concentration (MIC) values were determined by visual inspection as the lowest dilution of compounds showing no turbidity. Tetracycline was used as a positive control on every assay plate.

The nature of another data set: in vitro. Conditions: PAMPA. In a few lines: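 Compounds measured by HPLC (isocratic, compound-specific methods) after 4-h incubation at 37 °C across a three-layer artificial membrane into pH 7.4 PBS acceptor. Permeability derived from donor and acceptor peak areas, using diluted starting donor solution as external standard.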
Background: The PAMPA barrier holds no transporters, so it reflects passive diffusion.

The test system of another data set is E. coli D22. The data set is described as follows: MIC broth microdilution, E. coli D22. It is filed as cell-based. Conditions: Escherichia coli, D22; mutation in the lpxC gene that increases membrane permeability; read-out: MIC E. coli D22. The procedure: as §1
The subject of another data set is MRSA (QA-11.6). Kind of data set: MIC broth microdilution, MRSA QA-11.6. It is filed as cell-based, methicillin-resistant S. aureus. To be noted: Staphylococcus aureus, resistant to cefoxitin, gentamicin, sulfamethoxazole, tetracycline, read-out: MIC MRSA (QA-11.6). Here is the method: as §1
A further data set has as its system E. coli (QA-11.3). The data set is described as follows: MIC broth microdilution, E. coli QA-11.3. Conditions: Escherichia coli, 20 h; read-out: MIC E. coli (QA-11.3). Type of data set: cell-based. The procedure: as §1
(In general: Broth dilution looks for growth in wells or tubes with falling amounts of substance.)

The next data set concerns S. pneumoniae (QA-10/02). The data set is described as follows: MIC broth microdilution, S. pneumoniae. Type of data set: cell-based. Conditions: Streptococcus pneumoniae. The procedure: as §1
In data set [1] the test system is S. agalactiae RDK 047 (QA-990/02). The data set is described as follows: MIC broth microdilution, S. agalactiae. Type of data set: cell-based. Conditions: Streptococcus agalactiae; read-out: MIC S. agalactiae RDK 047 (QA-990/02). Here is the method: as §1
The test system of a further data set is M. smegmatis. Kind of data set: MIC, M. smegmatis. It is filed as cell-based, Mycobacterium smegmatis. To be noted: Mycolicibacterium smegmatis; read-out: MIC M. smegmatis. The procedure:
as §1

A further data set has as its target T1, E. coli DNA gyrase (Escherichia coli, UniProt P0AES4).
T1 construct: purchased Inspiralis (Norwich, UK)
Kind of data set: Gyrase Supercoiling High Throughput Plate assay, E. coli. It is filed as biochemical. Conditions: for LE DNA Gyrase E. coli: LE = (1.37/HA) × pIC50. The procedure: (§2) A Gyrase Supercoiling High Throughput Plate assay kit, purchased from Inspiralis (Norwich. UK) was used to determine IC50 values of compounds on S. aureus and E. coli. […] Biotinylated oligonucleotide in wash buffer was immobilized onto the wells, and the excess oligonucleotide was washed off with wash buffer and ultrapure water. […] The reactions were stopped by adding the TF buffer (50 mM NaOAc (pH 4.7), 50 mM NaCl, and 50 mM MgCl2) to allow the triplex formation (biotin-oligonucleotide-plasmid) for additional 30 min. Afterward, the unbound plasmid was washed off using TF buffer, and the solution of Promega Diamond dye in T10 buffer (10 mM Tris-HCl (pH 8.0), 1 mM EDTA) was added. […] IC50 value represents the mean of two to four independent measurements.

A further data set concerns MRSA (QA-11.7). The data set is described as follows: MIC broth microdilution, MRSA QA-11.7. It is filed as cell-based, methicillin-resistant S. aureus. To be noted: Staphylococcus aureus, 20 h, read-out: MIC MRSA (QA-11.7). Here is the method: as §1
The subject of data set [2] is C. jejuni RDK 135 (ATCC 33560). Kind of data set: MIC broth microdilution, C. jejuni. Type of data set: cell-based. To be noted: Campylobacter jejuni, ATCC33560; read-out: MIC C. jejuni RDK 135 (ATCC 33560). Here is the method:
as §1

The subject of data set [3] is P. aeruginosa RDK 184 (DSM 939). Kind of data set: MIC broth microdilution, P. aeruginosa. It is filed as cell-based. To be noted: Pseudomonas aeruginosa, DSM939; read-out: MIC P. aeruginosa RDK 184 (DSM 939). Here is the method: as §1
The test system of another data set is MRSA. Kind of data set: MIC broth microdilution, MRSA. Type of data set: cell-based, methicillin-resistant S. aureus. Conditions: Staphylococcus aureus, read-out: MIC MRSA. Here is the method:
as §1

Data set [4] deals with E. faecalis DRK 057 (ATCC 29212). The data set is described as follows: MIC broth microdilution, E. faecalis. It is filed as cell-based. Conditions: Enterococcus faecalis, ATCC29212; read-out: MIC E. faecalis DRK 057 (ATCC 29212). The procedure: as §1
Another data set has as its target T2, S. aureus DNA gyrase (Staphylococcus aureus, UniProt P20831).
T2 construct: purchased Inspiralis (Norwich, UK)
The data set is described as follows: biochemical. Type of data set: biochemical. To be noted: for LE DNA Gyrase S. aureus: LE = (1.37/HA) × pIC50; for IC50: fluorescence plate supercoiling assay, mean of two to four measurements. Here is the method:
as §2

Data set [5] in a line: Equilibrium solubility at pH 6.8. To be noted: for solubility at pH 6.8 in words: pH 6.8, single-dose in 500 mL; for solubility thermodynamic at 24 h: phosphate buffered saline, 37 °C, pH 6.8, aqueous buffer, thermodynamic from solid. The method in brief: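 Concentrations in solution were read by compound-specific isocratic HPLC calibrated with 30–90 mg/L external standards, after 5 min homogenization and 24 h shaking at 1200 RPM, 37 °C.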

The test system of a further data set is E. coli N43 (CGSC# 5583). The data set is described as follows: MIC broth microdilution, E. coli N43. It is filed as cell-based. To be noted: Escherichia coli. In a few lines: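 MIC is the lowest compound dilution without visible turbidity. M. avium was tested in Middlebrook 7H9 with 5% OADC for ≥10 days; other strains at 10^5 CFU/mL final in cation-adjusted Mueller Hinton broth with TES, 18–20 h at 35 °C, following CLSI and EUCAST microdilution guidance.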

The test system of data set [6] is S. alachua RDK 030c (QA-1482/04). The data set is described as follows: MIC broth microdilution, S. alachua. Type of data set: cell-based. To be noted: Salmonella; read-out: MIC S. alachua RDK 030c (QA-1482/04). The procedure: as §1
Data set [7] deals with A. baumannii 8C6 (GES-14). The data set is described as follows: MIC broth microdilution, A. baumannii. Conditions: Acinetobacter baumannii; read-out: MIC A. baumannii 8C6 (GES-14). Type of data set: cell-based. The procedure:
as §1

Setting [8] is: read-out: E. coli N43 MIC in molar.
Setting [9] is: read-out: MIC E. coli N43 (CGSC# 5583).

≈ marks a conversion by molar mass, not a printed value. Where two headings read alike, the source gives them in different places.

T1 sequence (P0AES4 whole entry): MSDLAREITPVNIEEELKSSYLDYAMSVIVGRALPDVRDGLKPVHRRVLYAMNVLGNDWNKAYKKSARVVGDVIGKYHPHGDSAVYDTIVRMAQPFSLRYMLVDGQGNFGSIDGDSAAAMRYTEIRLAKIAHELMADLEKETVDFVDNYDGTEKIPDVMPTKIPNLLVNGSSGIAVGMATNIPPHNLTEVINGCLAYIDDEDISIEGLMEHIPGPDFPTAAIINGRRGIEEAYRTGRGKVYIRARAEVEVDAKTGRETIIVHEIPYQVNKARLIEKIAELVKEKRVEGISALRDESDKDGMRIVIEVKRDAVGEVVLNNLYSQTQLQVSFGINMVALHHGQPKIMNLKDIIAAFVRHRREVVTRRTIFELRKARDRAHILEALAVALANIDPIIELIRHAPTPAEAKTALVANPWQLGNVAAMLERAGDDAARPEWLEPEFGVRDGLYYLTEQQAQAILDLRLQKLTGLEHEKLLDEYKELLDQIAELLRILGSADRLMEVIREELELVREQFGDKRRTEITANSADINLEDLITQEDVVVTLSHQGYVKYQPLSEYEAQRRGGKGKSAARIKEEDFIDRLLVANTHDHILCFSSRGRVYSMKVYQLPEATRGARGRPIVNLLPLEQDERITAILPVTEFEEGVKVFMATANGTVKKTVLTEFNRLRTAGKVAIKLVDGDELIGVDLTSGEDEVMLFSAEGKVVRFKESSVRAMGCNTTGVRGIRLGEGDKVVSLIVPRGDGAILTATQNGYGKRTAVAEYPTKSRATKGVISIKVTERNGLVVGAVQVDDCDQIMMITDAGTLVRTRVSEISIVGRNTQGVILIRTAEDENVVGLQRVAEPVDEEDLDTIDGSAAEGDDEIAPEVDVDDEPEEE
T2 sequence (P20831 whole entry): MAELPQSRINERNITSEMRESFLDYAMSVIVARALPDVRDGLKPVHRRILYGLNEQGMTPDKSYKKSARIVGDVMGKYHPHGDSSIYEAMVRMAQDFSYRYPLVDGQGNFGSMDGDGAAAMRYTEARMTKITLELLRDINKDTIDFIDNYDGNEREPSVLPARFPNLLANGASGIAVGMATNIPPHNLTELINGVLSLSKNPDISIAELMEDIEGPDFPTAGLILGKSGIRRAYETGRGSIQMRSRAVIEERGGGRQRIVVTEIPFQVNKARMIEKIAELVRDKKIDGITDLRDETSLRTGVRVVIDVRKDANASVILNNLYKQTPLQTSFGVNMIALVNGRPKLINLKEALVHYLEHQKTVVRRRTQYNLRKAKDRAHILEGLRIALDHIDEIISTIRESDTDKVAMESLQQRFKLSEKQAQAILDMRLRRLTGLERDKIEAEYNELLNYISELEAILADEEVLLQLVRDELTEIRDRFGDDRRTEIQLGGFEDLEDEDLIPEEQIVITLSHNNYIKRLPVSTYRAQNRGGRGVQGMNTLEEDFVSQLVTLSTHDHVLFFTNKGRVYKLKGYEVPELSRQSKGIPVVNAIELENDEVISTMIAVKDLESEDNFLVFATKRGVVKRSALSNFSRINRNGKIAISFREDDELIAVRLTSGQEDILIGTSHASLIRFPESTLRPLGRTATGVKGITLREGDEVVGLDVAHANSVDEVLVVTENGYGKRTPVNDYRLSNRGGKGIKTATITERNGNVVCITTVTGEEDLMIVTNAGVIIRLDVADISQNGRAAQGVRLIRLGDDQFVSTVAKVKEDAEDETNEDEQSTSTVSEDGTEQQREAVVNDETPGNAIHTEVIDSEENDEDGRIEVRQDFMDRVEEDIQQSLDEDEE
T2 sequence (P0A0K8 whole entry partner): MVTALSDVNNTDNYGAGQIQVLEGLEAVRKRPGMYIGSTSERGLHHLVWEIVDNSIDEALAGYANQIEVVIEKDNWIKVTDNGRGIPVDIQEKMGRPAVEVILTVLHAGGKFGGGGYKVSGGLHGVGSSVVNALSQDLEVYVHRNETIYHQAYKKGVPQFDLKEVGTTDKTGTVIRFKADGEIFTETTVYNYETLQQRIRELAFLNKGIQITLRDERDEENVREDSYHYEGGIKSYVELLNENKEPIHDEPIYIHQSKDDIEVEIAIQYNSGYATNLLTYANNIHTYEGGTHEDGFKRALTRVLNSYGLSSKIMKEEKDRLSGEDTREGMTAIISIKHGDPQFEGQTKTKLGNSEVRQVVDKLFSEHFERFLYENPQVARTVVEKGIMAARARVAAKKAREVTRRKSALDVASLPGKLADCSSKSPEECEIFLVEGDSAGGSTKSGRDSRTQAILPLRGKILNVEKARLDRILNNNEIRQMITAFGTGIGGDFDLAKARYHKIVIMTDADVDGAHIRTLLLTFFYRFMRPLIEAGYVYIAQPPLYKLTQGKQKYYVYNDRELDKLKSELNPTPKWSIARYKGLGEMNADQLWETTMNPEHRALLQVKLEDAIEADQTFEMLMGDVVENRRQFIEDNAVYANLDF

One may read the Papp as the rate of passage across a membrane or cell layer, normalised by area and donor concentration. A low value points to slow passage. One may read the IC50 as the point on the concentration scale where inhibition reaches its midpoint. Low values mean greater potency, high ones weaker potency. Broadly, the solubility (thermodynamic) is solubility found after equilibrating the solid with the medium. In the case of `COc1ccc2nccc(CCN3CCC(NCc4cnn(C(C)C)c4)CC3)c2n1` [Compound 9, N-((1-Isopropyl-1H-pyrazol-4-yl)methyl)-1-(2-(6-methoxy-1,5-naphthyridin-4-yl)ethyl)piperidin-4-amine], the MIC in the data set with M. avium is 128 µg/mL (≈ 313 µM); with E. coli D22, 1 µg/mL (≈ 2.45 µM); in the data set with MRSA (QA-11.6) it was 1 µg/mL (≈ 2.45 µM); in the data set on E. coli (QA-11.3), 4 µg/mL (≈ 9.79 µM); in the data set on S. pneumoniae (QA-10/02), 0.5 µg/mL (≈ 1.22 µM); in data set [1], 0.5 µg/mL (≈ 1.22 µM). The MIC was 0.25 µg/mL (≈ 0.612 µM) in the data set with M. smegmatis; 1 µg/mL (≈ 2.45 µM) in the data set on MRSA (QA-11.7); 0.5 µg/mL (≈ 1.22 µM) in [2]; > 128 µg/mL in [3]; 0.25 µg/mL (≈ 0.612 µM) in the data set on MRSA; 1 µg/mL (≈ 2.45 µM) in data set [4]. Moreover, the MIC in the data set with E. coli N43 (CGSC# 5583) (setting [8]) was 0.61 µM; in the data set with E. coli N43 (CGSC# 5583) (setting [9]) it was 0.25 µg/mL; in data set [6], 64 µg/mL (≈ 157 µM); in data set [7] it was 2 µg/mL (≈ 4.9 µM). The Papp at 4 h was > 2.7 ×10⁻⁶ cm/s in the data set “in vitro” and 3.3 ×10⁻⁶ cm/s in “in vitro” (pH 7.4). In addition, the IC50 against E. coli DNA gyrase was found to be 2950 ± 560 nM; against S. aureus DNA gyrase, 160 ± 10 nM. Besides, on E. coli DNA gyrase, the “LE DNA Gyrase E. coli” value came out at 0.25. Further, on S. aureus DNA gyrase, the “LE DNA Gyrase S. aureus” value is given as 0.31. In [5], the “solubility at pH 6.8 in words” value is listed as “soluble at this pH in any conceivable single-dose”. In data set [5], this compound had a thermodynamic solubility at 24 h of 7550 µg/mL (≈ 18500 µM).

For `C=CCn1cc(CNC2CCN(CCc3ccnc4ccc(OC)nc34)CC2)cn1` [Compound 10, N-((1-Allyl-1H-pyrazol-4-yl)methyl)-1-(2-(6-methoxy-1,5-naphthyridin-4-yl)ethyl)piperidin-4-amine], the MIC with M. avium was > 128 µg/mL; with E. coli D22, 8 µg/mL (≈ 19.7 µM); with MRSA (QA-11.6) it was 4 µg/mL (≈ 9.84 µM); in the data set with E. coli (QA-11.3) it was 8 µg/mL (≈ 19.7 µM); with S. pneumoniae (QA-10/02), 1 µg/mL (≈ 2.46 µM); in data set [1] it was 4 µg/mL (≈ 9.84 µM). Also, the MIC was ≤ 1 µg/mL with M. smegmatis; 4 µg/mL (≈ 9.84 µM) in the data set with MRSA (QA-11.7); 8 µg/mL (≈ 19.7 µM) in data set [2]; > 128 µg/mL in [3]; 2 µg/mL (≈ 4.92 µM) in the data set on MRSA; 8 µg/mL (≈ 19.7 µM) in data set [4]. In addition, the MIC with E. coli N43 (CGSC# 5583) (setting [8]) was 2.46 µM; in the data set on E. coli N43 (CGSC# 5583) (setting [9]), 1 µg/mL; in data set [6], 128 µg/mL (≈ 315 µM); in data set [7], 32 µg/mL (≈ 78.7 µM). For the same compound, the figures for the Papp at 4 h in “in vitro” and in “in vitro” (pH 7.4) were > 2.7 ×10⁻⁶ cm/s and 4.1 ×10⁻⁶ cm/s, respectively. For the same compound, the figures for the IC50 against E. coli DNA gyrase and against S. aureus DNA gyrase were 16700 ± 930 nM and 1100 ± 170 nM, respectively. Moreover, the “LE DNA Gyrase E. coli” value at E. coli DNA gyrase is 0.22. Besides, the “LE DNA Gyrase S. aureus” value on S. aureus DNA gyrase was determined as 0.27. Besides, the “solubility at pH 6.8 in words” value in data set [5] is on record as “soluble at this pH in any conceivable single-dose”. In data set [5], the thermodynamic solubility at 24 h turned out to be 5700 µg/mL (≈ 14000 µM).
